Laboratory results taken from paper PMC5501099 (Malaria Journal, 2017).

What was measured:
Anopheles campestris = assay: Ivermectin lethal concentration / survivorship, membrane blood feeding; assay type: in vivo; conditions: An. campestris
Protocol: (§1) Powdered formulation of ivermectin compound was obtained from Sigma-Aldrich (St. Louis, USA). […] Control blood meals consisted of previously frozen DMSO diluted in PBS to match the ratio of DMSO and PBS fed to mosquitoes in the ivermectin-containing blood meals.
(§2) After blood feeding via a membrane feeder, unfed mosquitoes were removed and discarded. Blood-fed mosquitoes were held in 3.5-l plastic containers with access to 10% sucrose and kept in an incubator at 25 ± 1 °C and 70 ± 10% relative humidity, on a 12 h light:12 h dark photoperiod. Mosquito survivorship was monitored for 7 days, every 24 h dead mosquitoes were removed and recorded, and on day 7 all remaining mosquitoes were frozen and counted as alive.
(§3) A non-linear mixed effects model with probit analysis was used to calculate LC50, LC25 and LC5 values with Statistical Analysis Software (SAS Institute Inc, Cary, NC, USA) as described previously. Hazard ratios for mosquito mortality at day 7 post blood meal were calculated using Poisson regression analysis with STATA version 12.1 (StataCorp LLC, College Station, TX, USA). Oocyst and sporozoite prevalence (i.e. proportion of infected mosquitoes) was compared by Fishers Exact test. Oocyst intensity (i.e. number of oocysts per infected mosquito) was compared by the Mann–Whitney U test. To determine if P. vivax infection altered mosquito survivorship post-ivermectin ingestion survival data were analysed by the Mantel–Cox method. The Fishers Exact, Mann–Whitney U, and survival analysis data were analysed with Prism 7 (GraphPad Software Inc, San Diego, CA, USA).

Anopheles dirus [1] = assay: as above; assay type: in vivo; conditions: An. dirus
Protocol: as §1, §2, §3

Anopheles minimus = assay: as above; assay type: in vivo; conditions: An. minimus
Protocol: as §1, §2, §3

An. dirus = assay: Anticoagulant effects on mosquito survival with ivermectin LC25; assay type: in vivo, Anopheles dirus; conditions: sodium heparin vs CPDA, 7 days
Protocol: Blood was drawn from a single donor and put directly into 10 ml sodium heparin tubes (NH) (158 USP units, BD Vacutainer, Franklin Lakes, NJ, USA) or 6ml CPDA Vacuette tubes (Greiner Bio-One, Kremsmϋnster, Austria) under protocol (Protocol WRAIR#2079).

P. falciparum = conditions: cited from earlier work
[2] = cited from earlier work
Anopheles dirus [3] = assay: Effect of Plasmodium vivax infection on Anopheles dirus survivorship response to ivermectin; assay type: in vivo; conditions: ivermectin LC25 co-ingested with parasites on DPI 0 vs ivermectin LC25 only; 14 days
Text: Anopheles dirus were fed a P. vivax blood meal or a non-infectious blood meal prepared from uninfected donor blood and serum was replaced as described above. […] After blood feeding, 50 blood fed females from each treatment group were transferred to a new 0.5-l cardboard carton. Mosquito survivorship was monitored daily and dead mosquitoes were removed from the containers until day 14 post blood meal. Any live mosquitoes at day 14 were frozen and counted as alive. A separate group of mosquitoes were fed a P. vivax control blood meal to ensure that the P. vivax sample was infectious to mosquitoes and only isolates that successfully infected at least 80% of An. dirus were included in the results.
as §3, with “Oocyst and sporozoite prevalence (i.e. proportion of infected mosquitoes) was compared by Fishers Exact test. Oocyst intensity (i.e. number of oocysts per infected mosquito) was compared by the Mann–Whitney U test.” left out

An. gambiae = conditions: ivermectin MDAs in Senegal at 150 µg/kg, for up to 6 days post MDA; cited from earlier work

ivermectin
LC5 (Anopheles campestris; 7 days post blood meal): 11.7 ng/mL
LC25 (Anopheles campestris; 7 days post blood meal): 0.0189 µg/mL
LC50 (Anopheles campestris; 7 days post blood meal): 0.0264 µg/mL
IRR (Incidence Rate Ratio of mortality at day 7, treatment group divided by control group) (Anopheles campestris; ivermectin imbibed 3 ng/ml): 0.8
IRR (Incidence Rate Ratio of mortality at day 7, treatment group divided by control group) (Anopheles campestris; ivermectin imbibed 4 ng/ml): 1.7
IRR (Incidence Rate Ratio of mortality at day 7, treatment group divided by control group) (Anopheles campestris; ivermectin imbibed 5 ng/ml): 1.4
IRR (Incidence Rate Ratio of mortality at day 7, treatment group divided by control group) (Anopheles campestris; ivermectin imbibed 6 ng/ml): 1.0
IRR (Incidence Rate Ratio of mortality at day 7, treatment group divided by control group) (Anopheles campestris; ivermectin imbibed 8 ng/ml): 1.2
IRR (Incidence Rate Ratio of mortality at day 7, treatment group divided by control group) (Anopheles campestris; ivermectin imbibed 10 ng/ml): 1.0
IRR (Incidence Rate Ratio of mortality at day 7, treatment group divided by control group) (Anopheles campestris; ivermectin imbibed 15 ng/ml): 1.8
IRR (Incidence Rate Ratio of mortality at day 7, treatment group divided by control group) (Anopheles campestris; ivermectin imbibed 18 ng/ml): 2.7
IRR (Incidence Rate Ratio of mortality at day 7, treatment group divided by control group) (Anopheles campestris; ivermectin imbibed 20 ng/ml): 2.5
IRR (Incidence Rate Ratio of mortality at day 7, treatment group divided by control group) (Anopheles campestris; ivermectin imbibed 22 ng/ml): 3.4
IRR (Incidence Rate Ratio of mortality at day 7, treatment group divided by control group) (Anopheles campestris; ivermectin imbibed 25 ng/ml): 3.4
IRR (Incidence Rate Ratio of mortality at day 7, treatment group divided by control group) (Anopheles campestris; ivermectin imbibed 30 ng/ml): 2.5
IRR (Incidence Rate Ratio of mortality at day 7, treatment group divided by control group) (Anopheles campestris; ivermectin imbibed 35 ng/ml): 2.5
IRR (Incidence Rate Ratio of mortality at day 7, treatment group divided by control group) (Anopheles campestris; ivermectin imbibed 45 ng/ml): 4.9
IRR (Incidence Rate Ratio of mortality at day 7, treatment group divided by control group) (Anopheles campestris; ivermectin imbibed 50 ng/ml): 5.3
LC5 (Anopheles dirus [1]; 7 days post blood meal): 22.1 ng/mL
LC25 (Anopheles dirus [1]; 7 days post blood meal): 0.0381 µg/mL
LC50 (Anopheles dirus [1]; 7 days post blood meal): 0.0556 µg/mL
IRR (Incidence Rate Ratio of mortality at day 7, treatment group divided by control group) (Anopheles dirus [1]; ivermectin imbibed 20 ng/ml): 2.8
IRR (Incidence Rate Ratio of mortality at day 7, treatment group divided by control group) (Anopheles dirus [1]; ivermectin imbibed 25 ng/ml): 8.2
IRR (Incidence Rate Ratio of mortality at day 7, treatment group divided by control group) (Anopheles dirus [1]; ivermectin imbibed 30 ng/ml): 4.7
IRR (Incidence Rate Ratio of mortality at day 7, treatment group divided by control group) (Anopheles dirus [1]; ivermectin imbibed 35 ng/ml): 24.4
IRR (Incidence Rate Ratio of mortality at day 7, treatment group divided by control group) (Anopheles dirus [1]; ivermectin imbibed 40 ng/ml): 19.1
IRR (Incidence Rate Ratio of mortality at day 7, treatment group divided by control group) (Anopheles dirus [1]; ivermectin imbibed 45 ng/ml): 21.4
IRR (Incidence Rate Ratio of mortality at day 7, treatment group divided by control group) (Anopheles dirus [1]; ivermectin imbibed 50 ng/ml): 32.3
IRR (Incidence Rate Ratio of mortality at day 7, treatment group divided by control group) (Anopheles dirus [1]; ivermectin imbibed 55 ng/ml): 29.6
IRR (Incidence Rate Ratio of mortality at day 7, treatment group divided by control group) (Anopheles dirus [1]; ivermectin imbibed 60 ng/ml): 36.1
IRR (Incidence Rate Ratio of mortality at day 7, treatment group divided by control group) (Anopheles dirus [1]; ivermectin imbibed 65 ng/ml): 44.5
IRR (Incidence Rate Ratio of mortality at day 7, treatment group divided by control group) (Anopheles dirus [1]; ivermectin imbibed 70 ng/ml): 42.5
IRR (Incidence Rate Ratio of mortality at day 7, treatment group divided by control group) (Anopheles dirus [1]; ivermectin imbibed 80 ng/ml): 46.8
IRR (Incidence Rate Ratio of mortality at day 7, treatment group divided by control group) (Anopheles dirus [1]; ivermectin imbibed 85 ng/ml): 55.7
IRR (Incidence Rate Ratio of mortality at day 7, treatment group divided by control group) (Anopheles dirus [1]; ivermectin imbibed 95 ng/ml): 58.1
IRR (Incidence Rate Ratio of mortality at day 7, treatment group divided by control group) (Anopheles dirus [1]; ivermectin imbibed 100 ng/ml): 64.3
LC5 (Anopheles minimus; 7 days post blood meal): 6.7 ng/mL
LC25 (Anopheles minimus; 7 days post blood meal): 0.0113 µg/mL
LC50 (Anopheles minimus; 7 days post blood meal): 0.0163 µg/mL
IRR (Incidence Rate Ratio of mortality at day 7, treatment group divided by control group) (Anopheles minimus; ivermectin imbibed 1 ng/ml): 2.7
IRR (Incidence Rate Ratio of mortality at day 7, treatment group divided by control group) (Anopheles minimus; ivermectin imbibed 2 ng/ml): 0.5
IRR (Incidence Rate Ratio of mortality at day 7, treatment group divided by control group) (Anopheles minimus; ivermectin imbibed 3 ng/ml): 1.8
IRR (Incidence Rate Ratio of mortality at day 7, treatment group divided by control group) (Anopheles minimus; ivermectin imbibed 4 ng/ml): 2.9
IRR (Incidence Rate Ratio of mortality at day 7, treatment group divided by control group) (Anopheles minimus; ivermectin imbibed 5 ng/ml): 3.6
IRR (Incidence Rate Ratio of mortality at day 7, treatment group divided by control group) (Anopheles minimus; ivermectin imbibed 6 ng/ml): 1.3
IRR (Incidence Rate Ratio of mortality at day 7, treatment group divided by control group) (Anopheles minimus; ivermectin imbibed 8 ng/ml): 2.8
IRR (Incidence Rate Ratio of mortality at day 7, treatment group divided by control group) (Anopheles minimus; ivermectin imbibed 10 ng/ml): 3.8
IRR (Incidence Rate Ratio of mortality at day 7, treatment group divided by control group) (Anopheles minimus; ivermectin imbibed 12 ng/ml): 4.6
IRR (Incidence Rate Ratio of mortality at day 7, treatment group divided by control group) (Anopheles minimus; ivermectin imbibed 15 ng/ml): 5.8
IRR (Incidence Rate Ratio of mortality at day 7, treatment group divided by control group) (Anopheles minimus; ivermectin imbibed 18 ng/ml): 7.0
IRR (Incidence Rate Ratio of mortality at day 7, treatment group divided by control group) (Anopheles minimus; ivermectin imbibed 20 ng/ml): 9.5
IRR (Incidence Rate Ratio of mortality at day 7, treatment group divided by control group) (Anopheles minimus; ivermectin imbibed 25 ng/ml): 9.0
IRR (Incidence Rate Ratio of mortality at day 7, treatment group divided by control group) (Anopheles minimus; ivermectin imbibed 28 ng/ml): 10.5
IRR (Incidence Rate Ratio of mortality at day 7, treatment group divided by control group) (Anopheles minimus; ivermectin imbibed 30 ng/ml): 11.5
Effect of anticoagulant type on survivorship of An. dirus that ingested ivermectin (An. dirus): did not alter survivorship
Effect on P. falciparum oocyst intensity in An. gambiae (P. falciparum; LC25 or LC5 at DPI 0): no effect
Effect on oocyst prevalence of P. falciparum in An. gambiae (P. falciparum; ivermectin LC5 at DPI −3): reduced oocyst prevalence
Sporontocidal effect for P. falciparum in An. gambiae (P. falciparum; ivermectin LC25 at DPI 6 and 9): significant sporontocidal effect
Effect on P. falciparum prevalence in An. gambiae (P. falciparum; ivermectin LC25 ingested concomitantly (DPI 0)): significantly reduced
Safety of repeated administration ([2]; 400 µg/kg every two weeks for 12 weeks, adults, Sri Lanka and Brazil): safe
Safety and tolerability ([2]; doses up to 2000 µg/kg, healthy volunteers): safe and well tolerated
Effect of P. vivax infection on survivorship of An. dirus that ingested ivermectin (Anopheles dirus [3]): did not alter survivorship
An. gambiae 5-day survivorship reduced by (An. gambiae): 43.6%
